{"source": "patent US10815238B2", "about": "“Antimicrobial compounds and methods of making and using the same” (BIOVERSYS AG, priority 2013, dated 2020)"}
{"tested_on": "Eschericia coli (E. coli) strain ATCC25922", "experiment": "Standard microdilution assay, MIC against E. coli ATCC25922", "format": "cell-based", "conditions": "Escherichia coli; E. coli strain ATCC25922, standard microdilution assay; cutoff 16 micrograms/mL; read-out: MIC E. Coli", "description": "The in vitro activity of the compounds of the present invention can be determined. Antimicrobial testing is typically performed to determine the minimum inhibitory concentration (MIC). Minimum inhibitory concentrations (MICs) are determined by the microdilution method in a final volume of 100 μl according to protocols outlined by The Clinical and Laboratory Standards Institute (CLSI). Performance standards for reference strains are assessed within the same experimental design to maintain quality control. See, for example, Clinical Laboratory Standards Institute: Methods for dilution antimicrobial susceptibility tests for bacteria that grow aerobically M7-A8. Approved Standard-Eighth Edition. Wayne, Pa.: CLSI; December 2008; and Clinical Laboratory Standards Institute: Performance Standards for Antimicrobial Susceptibility Testing M100-S20; Approved Standard-Twentieth Edition. Wayne, Pa.: CLSI; June 2010.\nThe compounds of the present invention were tested for antimicrobial activity. The Compounds 1-582 were run against Eschericia coli (E. coli) strain ATCC25922 and Compounds 320-582 were run against Staphylococcus aureus (S. aureus) 11540 strain using a standard microdilution assay to determine minimum inhibitory concentrations (MICs). […] It will be recognized by one skilled in the art that the compounds can be assessed against other bacterial organisms and that the presentation of data for activity against Eschericia coli and Staphylococcus aureus are illustrative and in no way is intended to limit the scope of the present invention. The compounds of the present invention can be assayed against a range of other microorganisms depending upon the performance activity desired to be gathered. Furthermore, the “+” and “−” representation and the selection of a cutoff value of 16 micrograms/mL is also illustrative and in no way is intended to limit the scope of the present invention.", "units": {"MIC": "µg/mL"}}
{"compound": "C[C@H](N)CCCc1cc(Cl)c(F)c(-c2cc3cn(-c4ccc([C@@H](NCCCNC(=N)N)C5CC5)cc4)c(=O)nc3[nH]2)c1", "note": "[Compound 102]", "MIC": "< 16"}
{"compound": "C[C@H](N)CCCc1cc(Cl)c(F)c(-c2cc3cn(-c4ccc([C@H](CO)NCCCNC(=N)N)cc4)c(=O)nc3[nH]2)c1", "note": "[Compound 103]", "MIC": "< 16"}
{"compound": "C[C@H](N)CCCc1cc(SC(F)(F)F)cc(-c2cc3cn(-c4ccc([C@H](CO)NCCCNC(=N)N)cc4)c(=O)nc3[nH]2)c1", "note": "[Compound 104]", "MIC": "< 16"}
{"compound": "C[C@H](N)CCCc1cc(Cl)c(F)c(-c2cc3cn(-c4ccc([C@H](CC5=CCCN(C)C5)NCCCNC(=N)N)cc4)c(=O)nc3[nH]2)c1", "note": "[Compound 105]", "MIC": "< 16"}
{"compound": "C[C@H](N)CCCc1cc(SC(F)(F)F)cc(-c2cc3cn(-c4ccc(C(NCCCNC(=N)N)c5nnn[nH]5)cc4)c(=O)nc3[nH]2)c1", "note": "(some centres unmarked) [Compound 106]", "MIC": "< 16"}
{"compound": "C[C@H](N)CCCc1cc(Cl)c(F)c(-c2cc3cn(-c4ccc([C@H](C)NCCCN)cc4)c(=O)nc3[nH]2)c1", "note": "[Compound 107]", "MIC": "< 16"}
{"compound": "C[C@H](N)CCCc1cc(-c2cc3cn(-c4ccc([C@H](CO)NCCCNC(=N)N)cc4)c(=O)nc3[nH]2)cc(C(F)(F)F)c1", "note": "[Compound 108]", "MIC": "< 16"}
{"compound": "O=c1nc2[nH]ccc2cn1-c1ccc(CNCc2cccnc2)cc1", "note": "[Compound 109]", "MIC": "> 16"}
{"compound": "C[C@H](NCCCNC(=N)N)c1ccc(-n2cc3cc(-c4cc(SC(F)(F)F)cc([C@H](O)CC[C@@H](N)CO)c4)[nH]c3nc2=O)cc1", "note": "[Compound 110]", "MIC": "< 16"}
{"compound": "C[C@H](NCCCNC(=N)N)c1ccc(-n2cc3cc(-c4cc(SC(F)(F)F)cc([C@H](O)CC[C@H](N)CO)c4)[nH]c3nc2=O)cc1", "note": "[Compound 111]", "MIC": "< 16"}
{"compound": "C[C@H](N)CCCc1cc(Cl)c(F)c(-c2cc3cn(-c4ccc(CNCc5cccnc5)cc4)c(=O)nc3[nH]2)c1", "note": "[Compound 112]", "MIC": "> 16"}
{"compound": "C[C@H](N)CCCc1cc(SC(F)(F)F)cc(-c2cc3cn(-c4ccc(CNCc5cccnc5)cc4)c(=O)nc3[nH]2)c1", "note": "[Compound 113]", "MIC": "> 16"}
{"compound": "O=C(O)CNCc1ccc(-n2cc3cc[nH]c3nc2=O)cc1", "note": "[Compound 114]", "MIC": "> 16"}
{"compound": "C[C@H](N)CCCc1cc(Cl)c(F)c(-c2cc3cn(-c4ccc(CNCC(=O)O)cc4)c(=O)nc3[nH]2)c1", "note": "[Compound 115]", "MIC": "> 16"}
{"compound": "C[C@H](N)CCCc1cc(SC(F)(F)F)cc(-c2cc3cn(-c4ccc(CNCC(=O)O)cc4)c(=O)nc3[nH]2)c1", "note": "[Compound 116]", "MIC": "> 16"}
{"compound": "C[C@H](NCCCNC(=N)N)c1ccc(-n2cc3cc(-c4cc(CCC[C@@H](N)CF)cc(SC(F)(F)F)c4)[nH]c3nc2=O)cc1", "note": "[Compound 117]", "MIC": "< 16"}
{"compound": "C[C@H](N)CCCc1cc(Cl)c(F)c(-c2cc3cn(-c4ccc([C@@H](N)CCCCNC(=N)N)cc4)c(=O)nc3[nH]2)c1", "note": "[Compound 118]", "MIC": "< 16"}
{"compound": "C[C@H](N)CCCc1cc(Cl)c(F)c(-c2cc3cn(-c4ccc(CNCc5c[nH]nn5)cc4)c(=O)nc3[nH]2)c1", "note": "[Compound 119]", "MIC": "> 16"}
{"compound": "COc1ccc(Cn2cc(CNCc3ccc(-n4cc5cc(-c6cc(CCC[C@H](C)N)cc(Cl)c6F)[nH]c5nc4=O)cc3)nn2)cc1", "note": "[Compound 120]", "MIC": "> 16"}
{"compound": "C[C@H](N)CCCc1cc(SC(F)(F)F)cc(-c2cc3cn(-c4ccc(CNCc5c[nH]nn5)cc4)c(=O)nc3[nH]2)c1", "note": "[Compound 121]", "MIC": "> 16"}
{"compound": "COc1ccc(Cn2cc(CNCc3ccc(-n4cc5cc(-c6cc(CCC[C@H](C)N)cc(SC(F)(F)F)c6)[nH]c5nc4=O)cc3)nn2)cc1", "note": "[Compound 122]", "MIC": "> 16"}
{"compound": "CNCCNCc1ccc(-n2cc3cc(-c4cc(CCC[C@H](C)N)cc(Cl)c4F)[nH]c3nc2=O)cc1", "note": "[Compound 123]", "MIC": "< 16"}
{"compound": "CNCCNCc1ccc(-n2cc3cc(-c4cc(CCC[C@H](C)N)cc(SC(F)(F)F)c4)[nH]c3nc2=O)cc1", "note": "[Compound 124]", "MIC": "> 16"}
{"compound": "CNCCNCc1ccc(-n2cc(-c3cc4cn(-c5ccc(CNCCNC)cc5)c(=O)nc4[nH]3)c(N)nc2=O)cc1", "note": "[Compound 125]", "MIC": "> 16"}
{"compound": "O=c1nc2[nH]ccc2cn1-c1ccc(CNCc2ccncc2)cc1", "note": "[Compound 126]", "MIC": "> 16"}
{"compound": "C[C@H](N)CCCc1cc(Cl)c(F)c(-c2cc3cn(-c4ccc(CNCc5ccncc5)cc4)c(=O)nc3[nH]2)c1", "note": "[Compound 127]", "MIC": "> 16"}
{"compound": "C[C@H](N)CCCc1cc(SC(F)(F)F)cc(-c2cc3cn(-c4ccc(CNCc5ccncc5)cc4)c(=O)nc3[nH]2)c1", "note": "[Compound 128]", "MIC": "> 16"}
{"compound": "O=c1nc2[nH]ccc2cn1-c1ccc(CNCc2c[nH]nn2)cc1", "note": "[Compound 129]", "MIC": "> 16"}
{"compound": "COC[C@H](N)CCCc1cc(SC(F)(F)F)cc(-c2cc3cn(-c4ccc([C@H](C)NCCCNC(=N)N)cc4)c(=O)nc3[nH]2)c1", "note": "[Compound 130]", "MIC": "< 16"}
{"compound": "COc1ccc(Cn2cc(CNCc3ccc(-n4cc5cc[nH]c5nc4=O)cc3)nn2)cc1", "note": "[Compound 131]", "MIC": "> 16"}
{"compound": "C[C@H](NCCCNC(=N)N)c1ccc(-n2cc3cc(-c4cc(SC(F)(F)F)cc([C@H](O)CC[C@H](N)CCO)c4)[nH]c3nc2=O)cc1", "note": "[Compound 132]", "MIC": "< 16"}
{"compound": "C[C@H](NCCCNC(=N)N)c1ccc(-n2cc3cc(-c4cc(SC(F)(F)F)cc([C@H](O)CC[C@@H](N)CCO)c4)[nH]c3nc2=O)cc1", "note": "[Compound 133]", "MIC": "< 16"}
{"compound": "C[C@H](NCCCNC(=N)N)c1ccc(-n2cc3cc(-c4cc(SC(F)(F)F)cc([C@H](O)CCC(N)C(O)CO)c4)[nH]c3nc2=O)cc1", "note": "(some centres unmarked) [Compound 134]", "MIC": "< 16"}
{"compound": "C[C@H](NCCCNC(=N)N)c1ccc(-n2cc3cc(-c4cc(CCC[C@@H](N)CF)cc(Cl)c4F)[nH]c3nc2=O)cc1", "note": "[Compound 135]", "MIC": "< 16"}
{"compound": "C[C@H](N)CCCc1cc(Cl)c(F)c(-c2cc3cn(-c4ccc(CN)cc4)c(=O)nc3[nH]2)c1", "note": "[Compound 136]", "MIC": "> 16"}
{"compound": "C[C@H](N)CCCc1cc(SC(F)(F)F)cc(-c2cc3cn(-c4ccc(CN)cc4)c(=O)nc3[nH]2)c1", "note": "[Compound 137]", "MIC": "> 16"}
{"compound": "O=C(O)CCNCc1ccc(-n2cc3cc[nH]c3nc2=O)cc1", "note": "[Compound 138]", "MIC": "> 16"}
{"compound": "C[C@H](N)CCCc1cc(Cl)c(F)c(-c2cc3cn(-c4ccc(CNCCC(=O)O)cc4)c(=O)nc3[nH]2)c1", "note": "[Compound 139]", "MIC": "> 16"}
{"compound": "C[C@H](N)CCCc1cc(SC(F)(F)F)cc(-c2cc3cn(-c4ccc(CNCCC(=O)O)cc4)c(=O)nc3[nH]2)c1", "note": "[Compound 140]", "MIC": "> 16"}
{"compound": "COC(=O)CCNCc1ccc(-n2cc3cc(-c4cc(CCC[C@H](C)N)cc(SC(F)(F)F)c4)[nH]c3nc2=O)cc1", "note": "[Compound 141]", "MIC": "> 16"}
{"compound": "CNCCNCc1ccc(-n2cc3cc[nH]c3nc2=O)cc1", "note": "[Compound 142]", "MIC": "> 16"}
{"compound": "C=C[C@H](N)CCNCc1ccc(-n2cc3cc(-c4cc(CCC[C@H](C)N)cc(Cl)c4F)[nH]c3nc2=O)cc1", "note": "[Compound 143]", "MIC": "< 16"}
{"compound": "COc1ccc(CNCc2ccc(-n3cc4cc[nH]c4nc3=O)cc2)cn1", "note": "[Compound 144]", "MIC": "> 16"}
{"compound": "COc1ccc(CNCc2ccc(-n3cc4cc(-c5cc(CCC[C@H](C)N)cc(Cl)c5F)[nH]c4nc3=O)cc2)cn1", "note": "[Compound 145]", "MIC": "> 16"}
{"compound": "COc1ccc(CNCc2ccc(-n3cc4cc(-c5cc(CCC[C@H](C)N)cc(SC(F)(F)F)c5)[nH]c4nc3=O)cc2)cn1", "note": "[Compound 146]", "MIC": "> 16"}
{"compound": "C[C@H](N)CCCc1cc(SC(F)(F)F)cc(-c2cc3cn(-c4ccc(CNCc5ccc(=O)[nH]c5)cc4)c(=O)nc3[nH]2)c1", "note": "[Compound 147]", "MIC": "> 16"}
{"compound": "C[C@H](N)CCCc1cc(Cl)c(F)c(-c2cc3cn(-c4ccc(CNCC[C@@H](N)C5CC5)cc4)c(=O)nc3[nH]2)c1", "note": "[Compound 148]", "MIC": "< 16"}
